From US20020039597A1, “STABILIZED COMPOSITIONS CONTAINING BENZIMIDAZOLE-TYPE COMPOUNDS” (priority 1998, published 2002)
Values belong to the compound of their own block, whether it stands above or below them.

Experiments:
[1] = Compatibility test of sodium rabeprazole with additives (residual content by HPLC, visual coloring); format: physicochemical; conditions: 1 week, cold place sample = 100%; for residual content of sodium rabeprazole, 40° C.-75% RH: 40° C. 75% relative humidity
Method: 50 mg sodium rabeprazole and 450 mg additives shown in the table below were mixed in a mortar. The mixture was introduced into a transparent glass vial and stored in a cold place or at 60° C. or 40° C. under 75% relative humidity for 1 week and their content was determined by high performance liquid chromatography. Assuming that the content of the sample stored in the cold place is 100%, the degrees of the residual content under the respective conditions are shown in Tables 1 through 3. Further, their coloring changes were visually evaluated. The sodium rabeprazole used was amorphous in Table land crystalline in Tables 2 and 3. In Table 1, low-substituted hydroxypropyl cellulose (expressed as L-HPC) used as a disintegrating agent in addition to amorphous sodium rabeprazole was blended in the control; in Table 2, a sample further incorporating aluminum hydroxide (expressed as Al(OH) 3 in the table) i.e. an alkaline inorganic salt used as an antacid agent was used; and in Table 3, a sample incorporating polyvinyl pyrrolidone (expressed as PVP in the table) was used as a binder.

[2] = Amount of peroxide in crospovidone mixed with sodium sulfite (Japanese Pharmacopoeia test method); format: physicochemical
Method: Further, 1 g crospovidone containing 201 ppm peroxide was accurately taken, and sodium sulfite (amounts: 4 levels i.e. no addition, 0.02%, 0.05% and 0.10%) was added thereto and mixed well, and the amount of the peroxide in the mixture was determined according to a test method described in the Japanese Pharmacopoeia.

[3] = Table 2, crystalline sodium rabeprazole 50 mg + 450 mg additive
[4] = Table 3, crystalline sodium rabeprazole 50 mg + 450 mg additive
[5] = Table 1, amorphous sodium rabeprazole 50 mg + 450 mg additive

residual content of sodium rabeprazole, 40° C.-75% RH [1, 3]: 91.8% | residual content of sodium rabeprazole, 60° C. [1, 3]: 99.8% | residual content of sodium rabeprazole, 40° C.-75% RH [1, 4]: 86.9% | residual content of sodium rabeprazole, 60° C. [1, 4]: 97.3%
SMILES: COCCCOc1ccnc(C[S+]([O-])c2nc3ccccc3[nH]2)c1C (stereo not drawn) [sodium rabeprazole (crystalline), sodium rabeprazole]

SMILES: O=S([O-])[O-].[Na+].[Na+] [sodium sulfite]
amount of the peroxide in the composition ([2]; 0.02% sodium sulfite added to 1 g crospovidone containing 201 ppm peroxide): 184 ppm | amount of the peroxide in the composition ([2]; 0.05% sodium sulfite added to 1 g crospovidone containing 201 ppm peroxide): 108 ppm | amount of the peroxide in the composition ([2]; 0.10% sodium sulfite added to 1 g crospovidone containing 201 ppm peroxide): 0 ppm

residual content of sodium rabeprazole, 40° C.-75% RH [1, 5]: 93.9% | residual content of sodium rabeprazole, 60° C. [1, 5]: 99.1%
SMILES: COCCCOc1ccnc(C[S+]([O-])c2nc3ccccc3[nH]2)c1C (stereo not drawn) [sodium rabeprazole (amorphous), sodium rabeprazole]
